This is an account of results in paper PMC11009625, “Antibiotic class with potent in vivo activity targeting lipopolysaccharide synthesis in Gram-negative bacteria” (Proceedings of the National Academy of Sciences of the …, 2024).

Converted amounts (≈) assume the structure as drawn. Where two headings read alike, the source gives them in different places. Where only a bound is given, the exact number is not on record here.

One data set is described as follows: Safety testing in mice. The class given is in vivo. The conditions noted are these: intravenous 50 mg/kg and subcutaneous 100 mg/kg. How it is done:
PK and safety studies were done the Latvian Institute for Organic Synthesis (Riga, Latvia) and in vivo efficacy studies were done at Statens Serum Institut (Copenhagen, Denmark). Assays were done in accordance with the relevant permits at the respective sites (SI Appendix). For PK studies, plasma samples were taken from mice dosed subcutaneously and the samples were analyzed by UPLC/MS/MS. For in vivo efficacy studies, neutropenic mice were infected intraperitoneally with 10^6 bacteria and treated with subcutaneously with test compounds 1 h after infection. The mice were euthanized 4 h after treatment and serially diluted samples of blood and peritoneal fluid were plated onto blood agar plates. Complete experimental details available in SI Appendix.
Lantmännen) and water. […]
Safety testing in mice. […] Mice were extensively observed and toxicity signs were scored after 0-2, 5, […]
Plasma sample analysis by UPLC/MS/MS. Concentrations of EBL-3599 and EBL-3647 in mouse blood plasma were measured by liquid chromatography tandem mass spectrometry (LC/MS/MS) in positive electrospray ionization (ESI+) in multi reaction monitoring (MRM) mode. […]
A sample volume of 20 μL was transferred into a plastic tube and mixed with 300μL acetonitrile/methanol mixture (3:1, v/v) to precipitate proteins. […] Bioanalysis of samples from each mouse were measured in duplicate and the results averaged. […]

Data set [1] deals with P. aeruginosa PAO1 and efflux-defective PAO750. The data set can be described thus: MIC, P. aeruginosa laboratory strains. The class given is cell-based. The conditions noted are these: Pseudomonas aeruginosa. On the procedure: (§1) Minimum inhibitory concentration (MIC) values were determined according to the Clinical Laboratory Standards Institute guidelines. Frequency of resistance was determined by plating ~5 × 10^8 bacterial cells on agar-solidified media plates containing test compound at concentrations corresponding to four times the measured solid-media MIC of the strains. Colonies were counted after 24 h, restreaked onto media containing the same concentration of compound, and the MIC remeasured against the assayed compound. Genomic DNA from isolated clones was sequenced by paired-end sequencing on an Illumina MiSeq device. Complete experimental details available in SI Appendix. […]
Minimum inhibitory concentration (MIC) determination. Broth microdilution and agar dilution
MIC assays were conducted according to CLSI guidelines (M07-2012). Appropriate inoculation
suspension density was assessed using a Sensititre Nephelometer with a Sensititre 0.5
McFarland Standard. […]

A further data set concerns E. coli ATCC 25922. The data set can be described thus: Frequency of resistance and agar MIC, E. coli. The class given is cell-based. As to conditions: Escherichia coli, ATCC25922, read-out: Agar MIC E. coli ATCC 25922. On the procedure: as §1
(§2) Minimum inhibitory concentration (MIC) determination. […] Appropriate inoculation suspension density was assessed using a Sensititre Nephelometer with a Sensititre 0.5 […]
(§3) Frequency of Resistance. Frequency of resistance was assessed by spread plating between […] cfu of a freshly-grown culture of the strain of interest on plates containing a concentration of compound corresponding to 4 times the MIC of the strain (as determined by agar-dilution MIC). […] The frequency of resistance was determined by dividing the number of colonies obtained on the selective plates after 24 hours of growth by the calculated total population plated. […]

The subject of a further data set is K. pneumoniae ATCC 13883. The data set can be described thus: Frequency of resistance and agar MIC, K. pneumoniae. The class given is cell-based. The conditions noted are these: Klebsiella pneumoniae, ATCC13883, read-out: Agar MIC K. pneumoniae ATCC 13883. How it is done:
as §1, §2, §3

Setting [2] is: PAO1, read-out: MIC P. aeruginosa PAO1.
Setting [3] is: PAO1, read-out: MIC P. aeruginosa PAO750.

In the case of `Cc1cc(C#N)nc(N2CCN(S(=O)(=O)c3ccc(NC(=O)c4cc(CNCCCN)ccc4N(C)S(C)(=O)=O)cc3)CC2)n1.Cl.Cl` [EBL-3599], the “Tolerability / adverse reactions in mice” value in the data set “Safety testing in mice” was “well tolerated”. The MIC – broadly, the lowest concentration that inhibits growth of the organism – in data set [1] (setting [2]) is over 64 mg/L; in data set [1] (setting [3]) it was 64 mg/L; in the data set on E. coli ATCC 25922 it was 2 mg/L; in the data set with K. pneumoniae ATCC 13883 it was 0.5 mg/L.
As to `Cc1cc(C#N)nc(N2CCN(S(=O)(=O)c3ccc(NC(=O)c4cc(CN5CC(CN)C5)ccc4N(C)S(C)(=O)=O)cc3)CC2)n1` [EBL-3647], in the data set “Safety testing in mice”, the “Tolerability / adverse reactions in mice” value was “well tolerated”. Besides, the minimum inhibitory concentration (MIC) is over 64 mg/L in data set [1] (setting [2]), 64 mg/L (≈ 95.8 µM) in data set [1] (setting [3]), 2 mg/L (≈ 2.99 µM) in the data set with E. coli ATCC 25922 and 0.5 mg/L (≈ 0.749 µM) in the data set on K. pneumoniae ATCC 13883.
